Patent US20200216800A1, “CELL CULTURE MEDIUM FOR PRODUCING TARGET MATERIAL AT HIGH EFFICIENCY BY USING MAMMALIAN CELLS, CELL CULTURING METHOD USING SAME, AND METHOD OF PRODUCING TARGET MATERIAL” (priority 2015, published 2020)
Marks after values point to notes of the source that are not given here.

Assays:
Format in all cases: cell-based, Chinese hamster
rCHO-1 cells [1] = assay: Suspension culture of rCHO-1 cells: antibody level by sandwich ELISA
From the text: (§1) Two recombinant CHO DG44 cell lines (hereinafter referred to as “rCHo-1” and “rCHO-2”) were used for monoclonal antibody (mAB) production. Each cell line was passaged 8 times or more and suspension adapted in a protein-free medium (HY-PFM, in-house) or chemically defined medium (HY-CDM, in-house). The suspension-adapted cell line was used to evaluate how the concentrations of trace elements, the selection of an effective trace element, and the concentration of ZnSO4.7H2O (Zn) affected the growth of cells and the production of antibody in commercial chemically defined media.
(§2) The cell line was inoculated at a density of 4×10^5 cells/ml and cultured in an Erlenmeyer flask with a 30 ml/125 ml working volume on an orbital shaker at 120 rpm under humidified conditions at 37° C. and 5% CO2. Before inoculation, the cells were centrifuged at 1,000 rpm (×162 g) for 5 min, the supernatant was discarded, and the remaining cells were dispersed into single cells in the heated medium. The cells were passaged three times to minimize the influence of the remaining medium under the experimental conditions. The subcultured cells were evaluated.
4, 6, 8, 10, and 12 days after cells were inoculated under the experimental conditions, cell culture fluids were sampled, centrifuged at 1,000 rpm (×162 g) for 5 min, and stored at −20° C. before antibody analysis. Antibody levels were measured by sandwich enzyme linked immunosorbent assay (ELISA). For the detection of mAB by ELISA, anti-human IgG (Fab specific) (I5260, Sigma, St. Louis, Mo., USA) was used as a primary antibody and human IgG (Fc specific)-horseradish peroxidase (A0170, Sigma) was used as a chromogenic antibody. 1% (w/v) bovine serum albumin/phosphate buffered saline was used for blocking, 3,3′,5,5′-tetramethylbenzidine (TMB) solution (KPL, Gaithersburg, Md., USA) was used as a chromogenic reagent. The chromogenic reaction was stopped with 2 M H2SO4. For antibody level analysis, absorbance values were measured at a wavelength of 450 nm using a kinetic microplate reader (Molecular Devices, Sunnyvale, Calif., USA).

rCHO-1 cells [2] = assay: Suspension culture of rCHO-1 cells: density of live cells, growth and longevity (hemocytometer, trypan blue dye exclusion)
From the text: as §1, §2
The density of live cells was analyzed using a hemocytometer (Neubauer improved bright-line, Marienfeld, Germany), an inverted microscope (CK30, Olympus, Japan), and trypan blue dye exclusion.

rCHO-2 cells = assay: Suspension culture of rCHO-2 cells: antibody level by sandwich ELISA; settings: HY-CDM, Zn around 60-75 μM
From the text: as §1
The cell line was inoculated at a density of 4×10^5 cells/ml and cultured in an Erlenmeyer flask with a 30 ml/125 ml working volume on an orbital shaker at 120 rpm under humidified conditions at 37° C. and 5% CO2. […] The subcultured cells were evaluated.
4, 6, 8, 10, and 12 days after cells were inoculated under the experimental conditions, cell culture fluids were sampled, centrifuged at 1,000 rpm (×162 g) for 5 min, and stored at −20° C. before antibody analysis. Antibody levels were measured by sandwich enzyme linked immunosorbent assay (ELISA). […] For antibody level analysis, absorbance values were measured at a wavelength of 450 nm using a kinetic microplate reader (Molecular Devices, Sunnyvale, Calif., USA).

[3] = HY-CDM, Zn around 60-75 μM, rCHO-1
[4] = HY-PFM, trace element individually added in 20-fold amount of control
[5] = commercial CDM-1, 2 and 3, Zn ions enhanced to 60 μM

In the case of `O.O.O.O.O.O.O.O=S(=O)([O-])[O-].[Zn+2]` [Zn, ZnSO4.7H2O], the “qmAB at the initial stage of cell culture (0-4 days)” value (rCHO-1 cells [1]; HY-CDM, Zn 60 μM) is reported as 5.1 pcd, the “antibody production compared to control group” value (rCHO-1 cells [1]; [3]) is reported as 6.6 fold and the “antibody production rate (maximum)” value (rCHO-1 cells [1]; [3]) is reported as 440 mg/L. The “increase in antibody production compared to control group” value (rCHO-1 cells [1]; HY-PFM and HY-CDM, Zn 60 μM) was at least 2 fold, the “qmAB at the initial stage (0-4 days), times those in control group” value (rCHO-1 cells [1]; HY-PFM and HY-CDM, Zn 60 μM vs 3 μM) was “at least 1.7 times” and the “qmAB at the initial stage of cell culture (0-4 days)” value (rCHO-1 cells [1]; HY-PFM, Zn 60 μM) was 9.4 pcd. For the same compound, the “antibody production (maximum)” value (rCHO-1 cells [1]; HY-PFM, Zn 45-60 μM) was 360 mg/L, the “antibody production relative to control group” value (rCHO-1 cells [1]; HY-PFM, Zn 45-60 μM vs control (3 μM)) was “twice” and the maximum antibody level (rCHO-1 cells [1]; [4]) was 260 mg/L. The “qmAB (ped, 0-4 days)” value (rCHO-1 cells [1]; Zn 3 μM (control level), CDM) was 3.07 ± 0.19 ped, the “qmAB (ped, 4-8 days)” value (rCHO-1 cells [1]; Zn 3 μM (control level), CDM, calculated from the results obtained 4-6 days after cell culture) was 1.47 ± 0.10^a ped and the “qmAB (ped, 0-4 days)” value (rCHO-1 cells [1]; Zn 3 μM (control level), PFM) was 4.99 ± 0.13 ped. The “qmAB (ped, 4-8 days)” value (rCHO-1 cells [1]; Zn 3 μM (control level), PFM) was 1.75 ± 0.01 ped, the “qmAB (ped, 0-4 days)” value (rCHO-1 cells [1]; Zn 60 μM, CDM) was 5.06 ± 0.07 ped and the “qmAB (ped, 4-8 days)” value (rCHO-1 cells [1]; Zn 60 μM, CDM) was 3.30 ± 0.01 ped. For the same compound, the “qmAB (ped, 0-4 days)” value (rCHO-1 cells [1]; Zn 60 μM, PFM) was 9.35 ± 0.11 ped, the “qmAB (ped, 4-8 days)” value (rCHO-1 cells [1]; Zn 60 μM, PFM) was 3.74 ± 0.04 ped and the “effectiveness in producing antibody by batch culture” value (rCHO-1 cells [1]; Zn ion concentration enhanced to 30-90 μM, recombinant CHO cell lines) was “very effective in producing antibody by batch culture”. For the same compound, the “specific production rates of antibody” value (rCHO-1 cells [1]; Zn ions enhanced to 30 μM, protein-free and chemically defined media, recombinant CHO cell lines) was “improved”, the “qmAB at the late stage (4-8 days), times higher than control group” value (rCHO-1 cells [1]; both media (HY-PFM, HY-CDM), Zn 60 μM vs 3 μM) was 2.1 times and the “antibody productivities, times higher than control group” value (rCHO-1 cells [1]; [5]) was 1.2-1.5 times. The “cell growth and antibody production” value (rCHO-1 cells [1]; commercial CDM-4 (CD OptiCHO), Zn ions enhanced to 60 μM) was “only continuous cell growth and antibody production was observed”, the “cell longevity (cell viability of 80%), times higher than control group” value (rCHO-1 cells [2]; HY-CDM, Zn 60 μM) was 1.8 times and the live cell densities (rCHO-1 cells [2]; HY-PFM and HY-CDM, Zn 60 μM) was 9×10^6 cells/ml. For the same compound, the “period for which live cell density was maintained during cell culture” value (rCHO-1 cells [2]; HY-PFM and HY-CDM, Zn 60 μM) was “at least 9 days”, the “cell longevity (cell viability of 80%), times higher than control group” value (rCHO-1 cells [2]; HY-PFM, Zn 60 μM) was 1.4 times and the maximum cell density (rCHO-1 cells [2]; [4]) was 1.1×10^7 cells/ml. The “Cell longevity (day/80% viability)” value (rCHO-1 cells [2]; Zn 3 μM (control level), CDM) was 5.1 ± 0.0 days, the μ (rCHO-1 cells [2]; Zn 3 μM (control level), CDM) was 1.01 ± 0.04 day⁻¹ and the “Cell longevity (day/80% viability)” value (rCHO-1 cells [2]; Zn 3 μM (control level), PFM) was 6.2 ± 0.0 days. The μ (rCHO-1 cells [2]; Zn 3 μM (control level), PFM) was 0.87 ± 0.01 day⁻¹, the “Cell longevity (day/80% viability)” value (rCHO-1 cells [2]; Zn 60 μM, CDM) was 9.3 ± 0.4 days and the μ (rCHO-1 cells [2]; Zn 60 μM, CDM) was 1.00 ± 0.00 day⁻¹. For the same compound, the “Cell longevity (day/80% viability)” value (rCHO-1 cells [2]; Zn 60 μM, PFM) was 8.5 ± 0.2 days, the μ (rCHO-1 cells [2]; Zn 60 μM, PFM) was 0.90 ± 0.02 day⁻¹ and the “inhibitory effect on cell growth” value (rCHO-1 cells [2]; Zn ion concentration enhanced to 30-60 μM, recombinant CHO cell lines) was “no inhibitory effect on cell growth”. The “inhibition of cell growth” value (rCHO-1 cells [2]; [5]) was “No inhibition of cell growth was observed”, the “antibody production compared to control group” value (rCHO-2 cells) was 1.3 fold and the “antibody production rate (maximum)” value (rCHO-2 cells) was 210 mg/L.
